Test system: broadleaf signalgrass
Experiment: Foliar spray herbicide effect test in greenhouse pots (Test Example 1)
Format: in vivo, Brachiaria platyphylla
Conditions: evaluated 5 days after treatment, level 0-10
Procedure: Evaluation of phytotoxicity against a crop was shown by “no” when almost no phytotoxicity was observed, “low” when a low level phytotoxicity was observed, “medium” when a medium level phytotoxicity was observed and “high” when a high level phytotoxicity was observed.
A plastic pot of 11 cm in diameter and 8 cm in depth was filled with field soil. A seed of broadleaf signalgrass was sown and grown in a greenhouse for 28 days.
An emulsion of Compound A-1 was prepared by sufficiently mixing […] of Compound A-1, 6 parts of Sorpol 3005× (surfactant, produced by Toho Chemical) and 89 parts of xylene.
Each of • single use of an emulsion of Compound A-1, • single use of a formulation of Flumioxazin (commercial name: Pledge, produced by Sumitomo Chemical, containing 50% of Flumioxazin), • single use of a formulation of Sulfentrazone (commercial name: Authority, produced by Du Pont, containing 75% of Sulfentrazone), • a mixed composition of an emulsion of Compound A-1 and a formulation of Flumioxazin, and • a mixed composition of an emulsion of Compound A-1 and a solution of Sulfentrazone • were diluted with water containing 1% Agri-dex (produced by Helena). […]
After the treatment, they were raised in a greenhouse for 5 days and the effect against weeds was evaluated. In addition, after 14 days of the treatment, the phytotoxicity to soybean was evaluated.

Cc1nn(-c2cc(NS(C)(=O)=O)c(Cl)cc2Cl)c(=O)n1C(F)F [Sulfentrazone, N-[2,4-dichloro-5-[4-(difluoromethyl)-4,5-dihydro-3-methyl-5-oxo-1H-1,2,4-triazol-1-yl]phenyl]methanesulfonamide]
Herbicide Effect Broad signalgrass (200 g/ha active ingredient): 1 | Herbicide Effect Broad signalgrass (1200 g/ha active ingredient): 3

— patent US7407914B2, “Herbicide composition” (Sumitomo Chemical Company, Limited, priority 2001, dated 2008)
